Four molecules from paper PMC10918830, “Biosynthesis of Cytidine Diphosphate-6-D-Glucitol for the Capsular Polysaccharides of Campylobacter jejuni” (Biochemistry, 2024) can be followed below.

Data set [1] has as its target T1, NAD(P)-dependent oxidoreductase HS5.17 (CDP-6-D-glucitol synthase) (Campylobacter jejuni, UniProt A0A0U3AP28).
T1 construct: full-length, N-terminal His6 tag (pET-28a), E. coli expression; tag removed by TEV for the 8V4G crystals, tag kept for 8V4H; dimer
Kind of data set: X-ray crystal structure, […] Å. The data set is classed as binding. Particulars: tag-free enzyme; ternary complex with NADP(H); pH 9.0.

Data set [2] has as its target T1, NAD(P)-dependent oxidoreductase HS5.17 (CDP-6-D-glucitol synthase). Kind of data set: X-ray crystal structure, […] Å. The format is binding. Particulars: tagged enzyme; crystallized with NADP(H), which was not observed; pH 8.0.
Data set [3] concerns the molecule itself. Nature of the data set: crystal structure; tag-free enzyme crystallized with 5 mM CDP and 5 mM NADP(H), PEG 8000, hexyleneglycol, 100 mM CHES pH 9.0; 2.0 Å; dimer in the asymmetric unit.
Data set [4] concerns the molecule itself. Nature of the data set: crystal structure; tagged enzyme crystallized with 5 mM CDP-6-D-glucitol and 5 mM NADP(H), PEG 8000, 200 mM LiCl, 100 mM HEPPS pH 8.0; 2.2 Å; dimer in the asymmetric unit.

Consider `Nc1ccn([C@@H]2O[C@H](COP(=O)(O)OP(=O)(O)O)[C@@H](O)[C@H]2O)c(=O)n1` [CDP], for which the “X-ray crystal structure, 2.0 Å” value in data set [1] was “The first structure determined of the oxidoreductase was that in complex with NADP(H) and CDP”.
For the molecule `Nc1ccn([C@@H]2O[C@H](COP(=O)(O)OP(=O)(O)OC[C@@H](O)[C@@H](O)[C@H](O)[C@@H](O)CO)[C@@H](O)[C@H]2O)c(=O)n1` [compound 3, CDP-6-D-glucitol], in data set [2], the “X-ray crystal structure, 2.2 Å” value is recorded as “The electron density was unambiguous for the CDP-6-D-glucitol ligands in both subunits”.

B1: NAD(P)-dependent oxidoreductase (HS5.17) from C. jejuni serotype HS:5, tag-free (enzyme, Campylobacter jejuni serotype HS:5)
chain: MNEILKKRLKLLKNNFGTHINKIANKKILITGANGYIGSILTLILHGNAKLYCLVRNKDKMIDRFQEICGDIDKIDIYEDLYKIQDKIDIVIHCAAPTQSDFFIENPIDTVDIIYTNTKNILDFSKKNNVEKIIFLSTMEIYGDVIGDNIVEDDIGKFSVTNIRNSYPLAKQISEFMVHSYSKKYSLSTAIVRLTQAIGPTAQINDNRVYMDFIRSAIKKSQITLFTKGETKREYIDVFDVATAIIFVMCEKKMFEIYNISNPNIFISIYDLAKTISAKLNVQVVFDLQRDTSQYLPSFSRRLNSKKIYQLGWTPLFDLNQSLDDMIKYIKEVNE
notes: putative NAD(P)-oxidoreductase HS5.17 of Campylobacter jejuni serotype HS:5 (ATCC 43433), UniProt A0A0U3AP28; gene synthesized and codon-optimized, in pET-28a(+) between NdeI and XhoI; electron density seen from Met 1 to Asn 334; His 0 left over from the purification tag; Crystallized with CDP and NADP(H) (PDB 8V4G); also called CDP-6-D-glucitol synthase; nucleotide sugar reductase; source: E. …
One may read the stoichiometry N as the number of molecules, sites or subunits per partner or assembly. As for B1, in data set [3], the “stoichiometry N” value came to 2.

B2: NAD(P)-dependent oxidoreductase (HS5.17) from C. jejuni serotype HS:5, N-terminally histidine-tagged (enzyme, Campylobacter jejuni serotype HS:5)
chain: B1 chain
notes: putative NAD(P)-oxidoreductase HS5.17 of Campylobacter jejuni serotype HS:5 (ATCC 43433), UniProt A0A0U3AP28; gene synthesized and codon-optimized, in pET-28a(+) between NdeI and XhoI; electron density continuous from Met 1 to Asn 334, tag seen from Glu (-7) to Met 1 in Subunit B; Crystallized with CDP-6-D-glucitol (PDB 8V4H); also called CDP-6-D-glucitol synthase; nucleotide sugar reductase; …
Regarding B2, the “stoichiometry N” value in data set [4] was found to be 2.
